Experimental data reported in US5225528A, “Cyclic hexapeptide oxytocin antagonists” (priority 1990, dated 1993).
Read-outs that look alike come from different tables or passages of the source. Square brackets hold non-standard residues; d marks the D form. Peptide text beside a SMILES is read from it. dNMeH = CN[C@H](Cc1c[nH]cn1)C(=O)O; Pip(4-aza) = O=C(O)[C@@H]1CNCCN1; dNMeF = CN[C@H](Cc1ccccc1)C(=O)O; dPip(4-aza) = O=C(O)[C@H]1CNCCN1; hPhe = N[C@@H](CCc1ccccc1)C(=O)O; Pip = O=C(O)[C@@H]1CCCCN1; dPip = O=C(O)[C@H]1CCCCN1; Orn = NCCC[C@H](N)C(=O)O; dNMeA = CN[C@H](C)C(=O)O

How the values were obtained:
[1] = target: T1, uterine OT receptors (Rattus norvegicus, UniProt P70536); test: [^3 H]OT binding to uterine OT receptors, crude membrane preparation of uteri from DES-treated rats; conditions: for IC50: rat uterus membranes, 1 nM [^3 H]OT, read-out: Receptor Binding Results IC50 (nM) [^3 H]OT
T1 construct: from tissue; host or cells: uterus of DES-treated rats, crude membranes
T1 sequence (P70536 1-388): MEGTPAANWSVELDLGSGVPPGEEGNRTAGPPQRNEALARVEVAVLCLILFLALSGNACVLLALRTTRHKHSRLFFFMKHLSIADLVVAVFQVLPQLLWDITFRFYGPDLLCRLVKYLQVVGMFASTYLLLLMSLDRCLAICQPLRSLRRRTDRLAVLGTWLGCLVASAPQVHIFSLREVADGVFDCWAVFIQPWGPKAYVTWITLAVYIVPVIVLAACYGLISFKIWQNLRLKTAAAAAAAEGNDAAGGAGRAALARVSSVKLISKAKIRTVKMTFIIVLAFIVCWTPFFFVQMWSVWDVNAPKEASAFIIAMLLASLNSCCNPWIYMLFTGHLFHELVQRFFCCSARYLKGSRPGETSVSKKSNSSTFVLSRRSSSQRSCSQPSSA
Method: Competition studies were conducted at equilibrium (60 minutes; 22° C.) using 1 nM [^3 H]OT in the following assay buffer: 50 mM Tris-HCl, 5 mM MgCl2, and 0.1% BSA, pH 7.4.

[2] = target: T2, AVP-V1 sites (Rattus norvegicus, UniProt P30560); test: [^3 H]AVP binding to crude membrane preparation of male rat liver (AVP-V1 sites)
T2 construct: crude membrane preparation of male rat liver (AVP-V1 sites); from tissue; host or cells: male rat liver, crude membranes
Method: (§1) Nonspecific binding (5-10% of the total binding) was determined using 10 μM unlabeled AVP, and the binding reaction was terminated by filtration as described above for the [^3 H]OT binding assay.

[3] = target: T3, AVP-V2 sites (Rattus norvegicus, UniProt Q00788); test: [^3 H]AVP binding to crude membrane preparation of male rat kidney medulla (AVP-V2 sites)
T3 construct: male rat liver (AVP-V1 sites) or kidney medulla (AVP-V2 sites); from tissue; host or cells: male rat kidney medulla, crude membranes
Method: as §1

[4] = Receptor Binding Results IC50 (nM) [^3 H]-AVP-V1
[5] = rat kidney medulla membranes, 2 nM [^3 H]AVP, read-out: Receptor Binding Results IC50 (nM) [^3 H]-AVP-V2
[6] = read-out: Receptor Binding Results IC50 (nM) [^3 H]-AVP-V1
[7] = read-out: Receptor Binding Results IC50 (nM) [^3 H]-AVP-V2

T3 sequence (Q00788 whole entry): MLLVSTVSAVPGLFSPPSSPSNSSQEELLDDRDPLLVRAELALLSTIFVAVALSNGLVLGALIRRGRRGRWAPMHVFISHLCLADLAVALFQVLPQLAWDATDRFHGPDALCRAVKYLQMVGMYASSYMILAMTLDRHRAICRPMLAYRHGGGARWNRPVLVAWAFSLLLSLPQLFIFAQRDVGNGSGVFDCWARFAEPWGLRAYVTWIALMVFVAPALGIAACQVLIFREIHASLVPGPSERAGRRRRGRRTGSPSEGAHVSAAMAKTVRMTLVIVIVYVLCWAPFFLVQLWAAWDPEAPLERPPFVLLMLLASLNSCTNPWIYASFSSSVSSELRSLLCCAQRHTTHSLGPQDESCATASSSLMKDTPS
T2 sequence (P30560 whole entry): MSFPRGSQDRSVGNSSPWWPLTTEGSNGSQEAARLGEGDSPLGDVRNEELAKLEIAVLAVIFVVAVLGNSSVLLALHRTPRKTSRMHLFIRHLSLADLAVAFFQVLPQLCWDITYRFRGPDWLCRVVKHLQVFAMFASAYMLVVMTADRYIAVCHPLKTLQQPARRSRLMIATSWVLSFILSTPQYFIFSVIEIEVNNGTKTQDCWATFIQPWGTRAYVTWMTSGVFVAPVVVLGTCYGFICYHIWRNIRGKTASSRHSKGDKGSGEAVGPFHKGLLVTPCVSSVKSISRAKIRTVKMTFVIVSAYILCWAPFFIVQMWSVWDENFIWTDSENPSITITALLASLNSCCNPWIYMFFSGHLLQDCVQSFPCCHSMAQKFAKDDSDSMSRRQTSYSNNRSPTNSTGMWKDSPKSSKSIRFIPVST

IC50 [2, 6] [nM] | SMILES | inhibition at 0.1 µM ([1]; 1 h, @ 100 (nM), read-out: [^3 H]OT: percent inhibition of radioligand at the given concentration) [%] | IC50 [2, 4] [nM] | IC50 ([3]; Receptor Binding Results IC50 (nM) [^3 H]-AVP-V2) [nM] | IC50 [1] [nM] | IC50 [3, 5] [nM] | IC50 [3, 7] [nM]
 | CC[C@H](C)[C@@H]1NC(=O)[C@@H](Cc2c[nH]c3ccccc23)NC(=O)[C@@H]2CCCN2C(=O)[C@@H](Cc2ccccc2)N(C)C(=O)[C@H](CCCN)NC(=O)[C@H]2CCCCN2C1=O [Example 40, Cyclo[D-tryptophanyl-L-isoleucyl-D-pipecolyl-L-ornithyl-D-(N^α Methyl)phenylalanyl-L-prolyl]] (cyclo(I[dPip][Orn][dNMeF]P[dW])) | 59 | > 1000 | > 1000 |  |  | 
 | C[C@@H]1NC(=O)[C@@H](Cc2ccccc2)NC(=O)[C@@H]2CCCN2C(=O)[C@@H](Cc2ccccc2)N(C)C(=O)[C@@H]2CCCCN2C(=O)[C@H]2CCCCN2C1=O [Example 9, Cyclo[D-phenylalanyl-L-alanyl-D-pipecolyl-L-pipecolyl-D-(N^α methyl)phenylalanyl-L-prolyl]] (cyclo(A[dPip][Pip][dNMeF]P[dF])) |  | > 10000 |  | > 10000 | > 10000 | 
7300 | CC[C@H](C)[C@@H]1NC(=O)[C@@H](Cc2ccccc2)NC(=O)[C@@H]2CCCN2C(=O)[C@@H](Cc2cnc[nH]2)NC(=O)[C@@H]2CCCCN2C(=O)[C@H]2CCCCN2C1=O [Example 3] (cyclo(I[dPip][Pip][dH]P[dF])) |  |  |  | 88 | 19000 | 
8800 | CN1C(=O)[C@@H]2CCCCN2C(=O)[C@H]2CCCCN2C(=O)[C@H](CCc2ccccc2)NC(=O)[C@@H](Cc2ccccc2)NC(=O)[C@@H]2CCCN2C(=O)[C@H]1Cc1ccccc1 [Example 135, c-[D-Phenylalanyl-L-homophenylalanyl-D-pipecolyl-L-pipecolyl-D-(N-methyl)phenylalanyl-L-prolyl]] (cyclo(P[dF][hPhe][dPip][Pip][dNMeF])) |  |  |  | 3400 |  | 5000
13700 | CC[C@H](C)[C@@H]1NC(=O)[C@@H](Cc2c[nH]c3ccccc23)NC(=O)[C@@H]2CCCN2C(=O)[C@@H](Cc2c[nH]cn2)N(C)C(=O)[C@@H]2CCCCN2C(=O)[C@H]2CCCCN2C1=O [Example 19, Cyclo[D-tryptophanyl-L-isoleucyl-D-pipecolyl-L-pipecolyl-D-(N^α methyl)histidyl-L-prolyl]] (cyclo(I[dPip][Pip][dNMeH]P[dW])) |  |  |  | 18 | 4330 | 
 | CC[C@H](C)[C@@H]1NC(=O)[C@@H](Cc2ccccc2)NC(=O)[C@@H]2CCCN2C(=O)[C@@H](Cc2ccccc2)NC(=O)[C@@H]2CNCCN2C(=O)[C@H]2CNCCN2C1=O [Example 80, c-[D-Phenylalanyl-L-isoleucinyl-D-piperazin-2-yl-L-piperazin-2-yl-D-phenylalanyl-L-prolyl]] (cyclo(I[dPip(4-aza)][Pip(4-aza)][dF]P[dF])) |  | > 10000 |  | 10000 | > 10000 | 
 | CC[C@H](C)[C@@H]1NC(=O)[C@@H](Cc2ccccc2)NC(=O)[C@@H]2CCCN2C(=O)[C@@H](Cc2ccccc2)N(C)C(=O)[C@@H](C)N(C)C(=O)[C@H]2CCCCN2C1=O [Example 6, Cyclo[D-phenyalanyl-L-isoleucyl-D-pipecolyl-L-(N^α -methyl)alanyl-D-(N^α Methyl)phenylanyl-L-prolyl]] (cyclo([dF]I[dPip][dNMeA][dNMeF]P)) |  | > 10000 |  | 1800 | > 10000 | 
 | CCOc1ccc(C[C@H]2NC(=O)[C@@H]3CCCN3C(=O)[C@@H](Cc3ccccc3)N(C)C(=O)[C@@H]3CCCCN3C(=O)[C@H]3CCCCN3C(=O)[C@H]([C@@H](C)CC)NC2=O)cc1 [Example 122, c-[(O-Ethyl)-D-tyrosyl-L-isoleucyl-D-pipecolyl-L-pipecolyl-N-methyl-D-phenylalanyl-L-prolyl]] (cyclo(I[dPip][Pip][dNMeF]P[dY](Et))) |  | > 10000 |  | 130 |  | 695
